In patent publication US5399585A, “Carboxamides and sulfonamides compounds which have useful pharmaceutical utility” (Hoffmann-La Roche Inc., priority 1989, dated 1995):

target: T1, fibrinogen receptor of blood platelets, glycoprotein IIb/IIIa (Homo sapiens, UniProt P05106+P08514); experiment: Inhibition of fibrinogen binding to immobilized glycoprotein IIb/IIIa (ELISA); conditions: purified glycoprotein IIb/IIIa from human blood platelets bound to microtitre plates, read-out: IC50 (concentration of test substance required to inhibit the binding of fibrinogen to the immobilized receptor by 50%)
T1 construct: Glycoprotein IIb/IIIa is obtained from Triton X-100 extracts of human blood platelets; from tissue; host or cells: human blood platelets (Triton X-100 extract)
Method: Glycoprotein IIb/IIIa is obtained from Triton X-100 extracts of human blood platelets and purified by lectin affinity chromatography (Analytical Biochemistry 151, 1985, 169-177) and chromatography on an Arg-Gly-Asp-Ser affinity column (Science 231, 1986, 1559-62). The receptor protein obtained in this way is bound to microtitre plates. The specific binding of fibrinogen to the immobilized receptor is determined using an ELISA system (enzyme-linked immunosorbent assay). The IC50 values hereinafter correspond to that concentration of the test substance required to inhibit the binding of fibrinogen to the immobilized receptor by 50%: […]

T1 sequence (P08514 32-887 limits assumed): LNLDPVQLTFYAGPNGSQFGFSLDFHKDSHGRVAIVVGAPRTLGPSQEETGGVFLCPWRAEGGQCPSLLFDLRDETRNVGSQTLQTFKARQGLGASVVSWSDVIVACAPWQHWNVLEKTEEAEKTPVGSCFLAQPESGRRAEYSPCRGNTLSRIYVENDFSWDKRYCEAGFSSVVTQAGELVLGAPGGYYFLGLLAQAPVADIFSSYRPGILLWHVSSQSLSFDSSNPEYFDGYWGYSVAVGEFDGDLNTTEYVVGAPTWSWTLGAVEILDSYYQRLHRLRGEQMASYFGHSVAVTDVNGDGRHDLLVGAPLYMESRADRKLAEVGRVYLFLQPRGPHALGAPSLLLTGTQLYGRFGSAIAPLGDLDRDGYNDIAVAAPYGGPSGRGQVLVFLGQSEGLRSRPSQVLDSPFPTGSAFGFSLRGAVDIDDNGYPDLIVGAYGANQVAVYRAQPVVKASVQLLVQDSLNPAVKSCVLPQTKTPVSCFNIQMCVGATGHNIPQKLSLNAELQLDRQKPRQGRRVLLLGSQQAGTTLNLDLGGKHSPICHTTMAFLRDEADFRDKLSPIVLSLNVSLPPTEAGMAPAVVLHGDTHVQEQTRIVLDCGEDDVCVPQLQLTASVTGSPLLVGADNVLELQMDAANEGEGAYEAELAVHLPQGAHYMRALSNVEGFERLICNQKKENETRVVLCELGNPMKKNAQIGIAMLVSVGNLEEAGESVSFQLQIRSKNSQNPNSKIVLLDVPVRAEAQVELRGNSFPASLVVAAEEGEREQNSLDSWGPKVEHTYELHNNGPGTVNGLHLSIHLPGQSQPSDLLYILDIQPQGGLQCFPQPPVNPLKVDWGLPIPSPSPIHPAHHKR
T1 sequence (P08514 891-1039 limits assumed): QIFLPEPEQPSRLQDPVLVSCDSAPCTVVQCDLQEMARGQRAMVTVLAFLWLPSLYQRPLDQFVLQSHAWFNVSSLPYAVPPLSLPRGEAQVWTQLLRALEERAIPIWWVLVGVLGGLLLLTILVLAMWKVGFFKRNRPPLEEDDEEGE
T1 sequence (P05106 27-788): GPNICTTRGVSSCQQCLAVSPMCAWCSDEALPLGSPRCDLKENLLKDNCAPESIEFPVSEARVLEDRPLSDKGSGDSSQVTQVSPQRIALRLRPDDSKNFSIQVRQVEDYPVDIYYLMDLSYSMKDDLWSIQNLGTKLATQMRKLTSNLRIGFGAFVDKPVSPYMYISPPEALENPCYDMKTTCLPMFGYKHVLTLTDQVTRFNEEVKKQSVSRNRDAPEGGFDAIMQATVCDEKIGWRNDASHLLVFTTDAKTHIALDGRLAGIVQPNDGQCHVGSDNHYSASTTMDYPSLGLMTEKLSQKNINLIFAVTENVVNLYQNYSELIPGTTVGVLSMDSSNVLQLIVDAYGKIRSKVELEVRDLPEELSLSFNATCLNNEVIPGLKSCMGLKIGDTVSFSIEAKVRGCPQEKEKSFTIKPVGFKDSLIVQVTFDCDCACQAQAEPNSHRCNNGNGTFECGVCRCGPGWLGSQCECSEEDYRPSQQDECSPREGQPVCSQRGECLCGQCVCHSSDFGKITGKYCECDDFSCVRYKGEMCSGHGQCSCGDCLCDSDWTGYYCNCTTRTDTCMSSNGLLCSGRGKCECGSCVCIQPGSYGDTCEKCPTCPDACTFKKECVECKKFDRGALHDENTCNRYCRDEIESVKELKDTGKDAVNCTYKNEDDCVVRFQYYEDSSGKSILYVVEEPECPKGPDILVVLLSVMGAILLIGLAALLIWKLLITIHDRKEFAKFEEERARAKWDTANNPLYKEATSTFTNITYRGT

Row | IC50 | SMILES
1 | 640 nM | N=C(N)c1ccc(S(=O)(=O)NCCOc2ccc(CC(=O)O)cc2)cc1 [Example 10, p-[2-(p-amidinophenylsulphonamido)ethoxy]phenylacetic acid]
2 | 370 nM | COC(=O)COc1ccc(CCNC(=O)c2ccc(C(=N)N)cc2)cc1 [Example 1, Methyl p-[2-(p-amidinobenzamido)ethyl]phenoxyacetate]
3 | 80 nM | N=C(N)c1ccc(C(=O)N[C@@H](CO)Cc2ccc(OCC(=O)O)cc2)cc1 [Example 81, p-[(R)-2-(p-amidinobenzamido)-3-hydroxypropyl)phenoxyacetic acid]
4 | 40 nM | N=C(N)c1ccc(C(=O)NCCc2ccc(OCC(=O)O)cc2)cc1 [Example 2, p-[2-(amidinobenzamido)ethyl]phenoxyaceticacid]
5 | 0.07 nM | CN(CC(=O)c1ccc(OCC(=O)O)c(OCC(=O)O)c1)C(=O)c1ccc(C(=N)N)cc1 [Example 83, [4-(p-amidino-N-methylbenzamido)acetyl-o-phenylenedioxy]diacetic acid]
6 | 30 nM | N=C(N)c1ccc(C(=O)NCCc2ccc(OCC(=O)O)cc2)cn1 [Example 48]
7 | 100 nM | CC(CC(=O)O)c1ccc(CCNS(=O)(=O)c2ccc(C(=N)N)cc2)cc1 (stereo not drawn) [Example 36, p-[2-(p-amidinophenylsulphonamido)ethyl]-β-methyl-hydrocinnamic acid]
8 | 8.1 nM | COC(=O)COc1ccc(C(=O)CN(C)C(=O)c2ccc(C(=N)N)cc2)cc1OCC(=O)OC [Example 82, dimethyl [4-(p-amidino-N-methylbenzamido)acetyl-o-phenylenedioxy]diacetate]
9 | 300 nM | N=C(N)c1ccc(S(=O)(=O)NCCCc2ccc(CC(=O)O)cc2)cc1 [Example 46, p-[3-(p-amidinophenylsulphonamido)propyl]phenylacetic acid]
10 | 470 nM | N=C(N)c1ccc(S(=O)(=O)NCC(O)c2ccc(OCC(=O)O)cc2)cc1 (centres unmarked) [Example 20, p-[2-(p-amidinobenzenesulphonamido)-1-hydroxyethyl]phenoxyacetic acid]
11 | 970 nM | N=C(N)c1ccc(CC(=O)NCc2ccc(OCC(=O)O)cc2)cc1 [Example 78, p-[2-(p-amidinophenyl)acetamido]-p-tolyloxyacetic acid]
12 | 720 nM | N=C(N)c1ccc(S(=O)(=O)N(CCc2ccc(OCC(=O)O)cc2)Cc2ccccc2)cc1 [Example 18, p-[2-(p-amidino-N-benzylphenylsulphonamido)ethyl]phenoxyacetic acid]
13 | 100 nM | N=C(N)c1ccc(S(=O)(=O)NCCc2ccc(OCC(=O)O)cc2)cc1 [Example 12, p-[2-(p-amidinobenzenesulphonamido)ethyl]phenoxyacetic acid]
14 | 40 nM | C[C@H](Cc1ccc([C@H](C)CC(=O)O)s1)NC(=O)c1ccc(C(=N)N)cc1 (racemic) [Example 40, (RS)-5-[(RS)-2-(p-amidinobenzamido)propyl]-β-methyl-2-thiophene-propionic acid]
